Results as given in ChEMBL document CHEMBL5726052, “Substituted triazoles useful as Axl inhibitors” (2019).

Target: T1, Tyrosine-protein kinase receptor UFO (Homo sapiens, UniProt P30530)
T1 sequence (P30530 whole entry): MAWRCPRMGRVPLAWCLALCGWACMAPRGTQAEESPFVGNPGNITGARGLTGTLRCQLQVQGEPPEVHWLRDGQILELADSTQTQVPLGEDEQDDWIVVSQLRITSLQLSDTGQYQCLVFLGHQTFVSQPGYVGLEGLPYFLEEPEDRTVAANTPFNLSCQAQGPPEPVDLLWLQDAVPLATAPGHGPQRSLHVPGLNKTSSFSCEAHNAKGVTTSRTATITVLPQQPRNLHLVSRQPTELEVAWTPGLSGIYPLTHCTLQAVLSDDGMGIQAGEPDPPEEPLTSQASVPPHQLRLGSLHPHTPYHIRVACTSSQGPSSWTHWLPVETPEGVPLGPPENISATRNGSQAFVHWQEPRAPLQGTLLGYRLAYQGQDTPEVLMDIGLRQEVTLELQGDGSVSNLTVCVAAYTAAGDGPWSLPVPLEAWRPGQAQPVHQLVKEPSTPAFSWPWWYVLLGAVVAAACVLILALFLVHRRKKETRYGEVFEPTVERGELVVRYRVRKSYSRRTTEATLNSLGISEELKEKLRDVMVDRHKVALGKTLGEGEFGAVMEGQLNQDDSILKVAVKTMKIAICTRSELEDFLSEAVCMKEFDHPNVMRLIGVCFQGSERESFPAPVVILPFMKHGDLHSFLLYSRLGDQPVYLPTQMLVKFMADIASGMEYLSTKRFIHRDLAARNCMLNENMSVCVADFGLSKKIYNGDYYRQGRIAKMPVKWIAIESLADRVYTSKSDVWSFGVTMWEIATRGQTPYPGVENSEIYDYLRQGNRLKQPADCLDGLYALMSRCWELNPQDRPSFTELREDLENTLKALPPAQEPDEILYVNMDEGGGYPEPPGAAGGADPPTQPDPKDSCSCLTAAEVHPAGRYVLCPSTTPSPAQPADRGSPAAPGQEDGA
Test: PHOSPHO-AKT IN-CELL WESTERN ASSAY: The resulting chemiluminescence was read with a Luminomitor within 10 minutes to minimize changes in signal intensity. After reading the chemiluminescence, the cells were washed 1× with wash buffer and 1× with PBS by plate washer. The plate was tapped onto paper towels to remove excess liquid from wells and air-dried at ambient temperature for 5 minutes.

IC50: > 20 µM
Compound: Nc1nc(Nc2ccc(OCCN3CCCCC3)cc2)n(-c2ccccc2)n1
